Results: article PMC2137757 (The Journal of Experimental Medicine, 1964)
Like-named read-outs stand apart in the source and are kept apart here.

Key:
adrenal cortex [1] = assay: Induced protection of adrenal against 7,12-DMBA; type: in vivo, rat; conditions: for Protection of adrenal after repeated doses: 15 mg fed daily for 5 days before 7,12-DMBA
adrenal cortex [2] = conditions: far larger doses than of 7,12-DMBA required; cited from earlier work
adrenal cortex [3] = conditions: cited from earlier work; for Protection of adrenal against 7,12-DMBA: single feeding
adrenal cortex [4] = assay: Adrenal damage; conditions: for Adrenal damage: feeding; for Pathological findings in adrenals: without hydrocarbons
[5] = Solubility of hydrocarbons in sesame oil; conditions: room temperature; approximately
[6] = tested on: menadione reductase (EC 1.6.5.2); assay: Induction of menadione reductase in tissues; type: in vivo, rat; conditions: for Hepatic menadione reductase: measured at 48 hours; for Induction of menadione reductase in liver: single feeding
lactic dehydrogenase = assay: Lactic dehydrogenase level in liver; type: in vivo, rat; conditions: 3-MC 2.5 mg intravenous; Fig. 1
[7] = tested on: deoxyribonucleic acid of adrenal; type: in vivo, rat; conditions: Table VII; ethionine 25 mg i.p. at -24 hrs alone
[8] = polycyclic aromatic hydrocarbons
[9] = 3-MC 2.5 mg i.v. on day 0 and day 1, tissues day 2, eight rats
[10] = rats bearing mammary cancers, fed 3-MC 10 mg, day 1, vs rats without 3-MC

CCC1(C2=CCCCC2)C(=O)NC(=O)NC1=O [cyclobarbital, 5-(1-cycloohexanyl)-5-ethylbarbituric acid]
Protection of adrenal after repeated doses (adrenal cortex [1]): did not induce pro- tection

Clc1ccc(C(c2ccccc2Cl)C(Cl)Cl)cc1 (centres unmarked) [o,p'-DDD, 2,2-bis(2-chlorophenyl,4-chlorophenyl)-l, 1-dichloroethane]
Adrenal necrosis (character) (adrenal cortex [2]): focal and patchy

Nc1cc2c3ccccc3ccc2c2ccccc12 [6-Aminochrysene]
Protection of adrenal against 7,12-DMBA (adrenal cortex [3]; aromatic amines): protection of this sort was afforded

Cc1cccc2ccc3cc4ccccc4c(C)c3c12 [1,12-DMBA]
Adrenal damage (adrenal cortex [4]; 30 mg): adrenal damage did not occur

c1ccc2cc3ccccc3cc2c1 [anthracene]
Protection of adrenal against 7,12-DMBA (adrenal cortex [3]; [8]): protection of this sort was afforded

Nc1ccc2ccccc2c1 [2-naphthylamine]
Protection of adrenal against 7,12-DMBA (adrenal cortex [3]; aromatic amines): protection of this sort was afforded

Cc1cccc2cc3c(cc12)c(C)cc1ccccc13 [6,8-Dimethylbenz[a]anthracene]
Adrenal damage (adrenal cortex [4]; 30 mg): adrenal damage did not occur

CC(C)(C(=O)c1cccnc1)c1cccnc1 [2-methyl-I, 2-b/s(3-pyr-idyl)-1-propanone]
Prevention of adrenal damage from 7,12-DMBA (adrenal cortex [3]; preliminary treatment of rats): prevented adrenal damage

CCC1(CC)C(=O)NC(=O)NC1=O [barbital]
Protection of adrenal after repeated doses (adrenal cortex [1]): did not induce pro- tection

c1ccc2c(c1)ccc1ccccc12 [phenanthrene]
Protection of adrenal against 7,12-DMBA (adrenal cortex [3]; [8]): protection of this sort was afforded

Cc1ccc2cc3c(ccc4ccccc43)c3c2c1CC3 [3-MC, 3-Methylcholanthrene]
Solubility w/v in sesame oil [5]: ~1.25 per cent
Hepatic menadione reductase ([6]; 3-MC 2.5 mg i.v. at 0 hours, lipide at 24 hours, Fig. 5): 276 per cent of controls
Increase of menadione reductase in adrenal with respect to untreated controls [6, 9]: 159 per cent
Increase of menadione reductase in lung with respect to untreated controls [6, 9]: 164 per cent
Time of significant rise in menadione reductase in liver ([6]; 3-MC 2.5 mg i.v. only, Fig. 4): 4 h
Time of first rise of menadione reductase in liver ([6]; 3-MC 2.5 mg intravenous, Fig. 1): 3 h
Time of first increase of menadione reductase ([6]; 3-MC large dose (5 mg) i.v., Discussion): 4 h
Increase of menadione reductase in liver [6, 10]: +224 per cent
Increase of menadione reductase in mammary cancer [6, 10]: +275 per cent
Increase of menadione reductase in mammary gland [6, 10]: +214 per cent
Hepatic menadione reductase ([6]; sequence 3-MC 2.5 mg + 3-MC 2.5 mg i.v. at 0 and 24 hours): 387 per cent of controls
Increase of menadione reductase concentration in liver ([6]; single feeding of 3-MC 0.5 mg, 24 hours, Fig. 2): twofold
Increase of menadione reductase level in lung ([6]; single feeding of 3-MC 1 mg, 24 hours, Fig. 2): 150 per cent
Change in concentration of lactic dehydrogenase in liver (lactic dehydrogenase): no significantchange
Adrenal protection (adrenal cortex [1]; 3-MC 0.5 mg on day -1 by feeding or injection in muscle or in vein): complete adrenal protection
Duration of adrenal protection (adrenal cortex [1]; 3-MC 1 mg i.v., apoplexy when 7,12-DMBA injected on day 3): 2 days
Duration of adrenal protection (adrenal cortex [1]; 3-MC 5 mg i.v., apoplexy when 7,12-DMBA injected on day 8): 6 days
Adrenal status (adrenal cortex [1]; 3-MC 2, 5, or 10 mg i.v. in the same emulsion with 7,12-DMBA 5 mg (simultaneous)): adrenal apoplexy in all of the animals
Duration of adrenal protection (adrenal cortex [1]; 3-MC small dose (2 mg) i.v., Discussion): 2 days
Adrenal status (adrenal cortex [1]; Table IV, 3-MC 0.5 mg i.v. at -1 hr before 7,12-DMBA 5 mg i.v.): +
Adrenal status (adrenal cortex [1]; Table IV, 3-MC 0.5 mg i.v. at -2 hrs before 7,12-DMBA 5 mg i.v.): +
Adrenal status (adrenal cortex [1]; Table IV, 3-MC 0.5 mg i.v. at -3 hrs before 7,12-DMBA 5 mg i.v.): 0
Adrenal status (adrenal cortex [1]; Table IV, 3-MC 0.5 mg i.v. at -4 hrs before 7,12-DMBA 5 mg i.v.): 0
Adrenal status (adrenal cortex [1]; Table IV, 3-MC 1 mg i.v. at -1 hr before 7,12-DMBA 5 mg i.v.): +
Adrenal status (adrenal cortex [1]; Table IV, 3-MC 1 mg i.v. at -2 hrs before 7,12-DMBA 5 mg i.v.): +
Adrenal status (adrenal cortex [1]; Table IV, 3-MC 1 mg i.v. at -3 hrs before 7,12-DMBA 5 mg i.v.): 0
Adrenal status (adrenal cortex [1]; Table IV, 3-MC 1 mg i.v. at -4 hrs before 7,12-DMBA 5 mg i.v.): 0
Adrenal status (adrenal cortex [1]; Table IV, 3-MC 2 mg i.v. at -1 hr before 7,12-DMBA 5 mg i.v.): +
Adrenal status (adrenal cortex [1]; Table IV, 3-MC 2 mg i.v. at -2 hrs before 7,12-DMBA 5 mg i.v.): +
Adrenal status (adrenal cortex [1]; Table IV, 3-MC 2 mg i.v. at -3 hrs before 7,12-DMBA 5 mg i.v.): 0
Adrenal status (adrenal cortex [1]; Table IV, 3-MC 2 mg i.v. at -4 hrs before 7,12-DMBA 5 mg i.v.): 0
Adrenal status (adrenal cortex [1]; Table IV, 3-MC 2.5 mg i.v. at -1 hr before 7,12-DMBA 5 mg i.v.): +
Adrenal status (adrenal cortex [1]; Table IV, 3-MC 2.5 mg i.v. at -2 hrs before 7,12-DMBA 5 mg i.v.): +
Adrenal status (adrenal cortex [1]; Table IV, 3-MC 2.5 mg i.v. at -3 hrs before 7,12-DMBA 5 mg i.v.): +
Adrenal status (adrenal cortex [1]; Table IV, 3-MC 2.5 mg i.v. at -4 hrs before 7,12-DMBA 5 mg i.v.): 0
Adrenal status (adrenal cortex [1]; Table IV, 3-MC 5 mg i.v. at -1 hr before 7,12-DMBA 5 mg i.v.): +
Adrenal status (adrenal cortex [1]; Table IV, 3-MC 5 mg i.v. at -2 hrs before 7,12-DMBA 5 mg i.v.): +
Adrenal status (adrenal cortex [1]; Table IV, 3-MC 5 mg i.v. at -3 hrs before 7,12-DMBA 5 mg i.v.): +
Adrenal status (adrenal cortex [1]; Table IV, 3-MC 5 mg i.v. at -4 hrs before 7,12-DMBA 5 mg i.v.): +
Adrenal status (adrenal cortex [1]; Table IV, 3-MC 10 mg i.v. at -1 hr before 7,12-DMBA 5 mg i.v.): +
Adrenal status (adrenal cortex [1]; Table IV, 3-MC 10 mg i.v. at -2 hrs before 7,12-DMBA 5 mg i.v.): +
Adrenal status (adrenal cortex [1]; Table IV, 3-MC 10 mg i.v. at -3 hrs before 7,12-DMBA 5 mg i.v.): +
Adrenal status (adrenal cortex [1]; Table IV, 3-MC 10 mg i.v. at -4 hrs before 7,12-DMBA 5 mg i.v.): +
Prevention of adrenal injury by 7,12-DMBA (adrenal cortex [3]): prevented adrenal injury

c1cc2ccc3cccc4ccc(c1)c2c34 [Pyrene]
Induction of menadione reductase in liver ([6]; 24 hours): failed to induce this enzyme

CCSCC[C@H](N)C(=O)O [ethionine]
Elevation of menadione reductase in liver at 12 hours vs rats without ethionine ([6]; 3-MC 2.5 mg i.v. plus ethionine 25 mg i.p.): significantly lower
Time elevation of menadione reductase in liver first detected ([6]; 3-MC 2.5 mg i.v. plus ethionine 25 mg i.p. just after, Fig. 4): 8 h
Adrenals at necropsy (adrenal cortex [1]; 3 doses of ethionine 25 mg at +1 minute, +4 hours, +8 hours after 3-MC 10 mg, 7,12-DMBA 5 mg): eliminated the protective effect of 3-MC
Adrenals at necropsy (adrenal cortex [1]; ethionine 25 mg 4 or 8 hours after 3-MC 2 mg, 7,12-DMBA 5 mg 24 hours later): yel- low adrenals
Effect on 7,12-DMBA-produced adrenal apoplexy (adrenal cortex [1]; ethionine 25 mg or 50 mg 0.5 hours before 7,12-DMBA 5 mg, no protector): adrenal apoplexy was found at necropsy in all of the rats
Adrenals at necropsy (adrenal cortex [1]; single doses of ethionine 25 mg or 50 mg, 1 minute to 1 hour after 3-MC 10 mg, 7,12-DMBA 5 mg): yellow adrenals
Pathological findings in adrenals (adrenal cortex [4]; injection of 25 to 75 mg): No pathological findings
Tritium content of adrenal [7]: 0.122 ~clgm
Tritium content of adrenal, per cent of controls [7]: 92 per cent

CSCC[C@H](N)C(=O)O [methionine]
Influence on aromatic protection against 7,12-DMBA (adrenal cortex [1]; methionine 50 mg as sole amino acid 1 hour before or 1 hour after 3-MC 2 mg): no influence on aromatic protection
Pathological findings in adrenals (adrenal cortex [4]; injection of 50 mg): No pathological findings

CC12OOC(C)(c3ccccc31)c1c2ccc2ccccc12 (centres unmarked) [transannular peroxide of 7,12-DMBA]
Adrenal protection (adrenal cortex [1]; feeding 10 mg): complete adre- nal protection
Animals with protection of adrenals (adrenal cortex [1]; single feeding of 2 mg, group of 5 rats): 3
Adrenal damage (adrenal cortex [4]; 50 mg): did not cause injury to the adrenals

c1ccc2c(c1)cc1ccc3cccc4ccc2c1c34 [Benzo[a]pyrene, benzo[a]pyrene]
Induction of menadione reductase in liver ([6]; 24 hours): induced synthesis of the enzyme
Protection of adrenal against 7,12-DMBA (adrenal cortex [3]; [8]): protection of this sort was afforded

Nc1ccc2c(c1)Cc1ccccc1-2 [2-aminofluorene]
Protection of adrenal against 7,12-DMBA (adrenal cortex [3]; aromatic amines): protection of this sort was afforded

Cc1ccc2cc3c(ccc4cc(C)ccc43)cc2c1 [3,9-Dimethylbenz[alanthracene]
Adrenal damage (adrenal cortex [4]; 30 mg): adrenal damage did not occur

c1ccc2c(c1)ccc1c3ccccc3ccc21 [Chrysene]
Induction of menadione reductase in liver ([6]; 24 hours): induced a considerable in- crease

Cc1c2ccccc2cc2c1cc(F)c1ccccc12 [5-Fluoro-7-methyl BaA]
Adrenals with hemorrhage (adrenal cortex [1]; Table III, dose 1 mg fed once day -1, 7,12-DMBA 5 mg i.v. day 0, adrenals day 3): 0/6

c1ccc2cc3c(ccc4ccccc43)cc2c1 [Benz[a]anthracene, benz[a]anthracene]
Protection of adrenal against 7,12-DMBA (adrenal cortex [3]; [8]): protection of this sort was afforded

CC(C)(O)C(Cl)(Cl)Cl [chloretone, 1,1,1-tricbloro-2-methyl-2-propanol]
Rats with protection of adrenals (adrenal cortex [1]; 15 mg fed daily for 5 days, group of 20 rats): 7
